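Dose response: 5 concentrations. Exposure: 48 h. Format: 96-well plates. Endpoint: linear interpolation; highest concentration if not reached. GI50 marks 50% less growth. At the TGI there is no net growth.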
How the values were obtained:
Experiment in all cases: growth of human tumour cells (NCI), 48 h
M14 melanoma = test system: M14 melanoma
MDA-MB-435 = test system: MDA-MB-435
MCF7 breast = test system: MCF7 breast
HOP-62 NSCLC = test system: HOP-62 NSCLC
OVCAR-8 ovarian = test system: OVCAR-8 ovarian
HCC-2998 colon = test system: HCC-2998 colon
UACC-257 melanoma = test system: UACC-257 melanoma
SK-MEL-5 melanoma = test system: SK-MEL-5 melanoma
SK-MEL-2 melanoma = test system: SK-MEL-2 melanoma
NCI-H226 lung = test system: NCI-H226 lung
MDA-MB-231 breast = test system: MDA-MB-231 breast
SW-620 colon = test system: SW-620 colon
HOP-92 NSCLC = test system: HOP-92 NSCLC
MDA-MB-468 breast = test system: MDA-MB-468 breast
OVCAR-5 ovarian = test system: OVCAR-5 ovarian
NCI-H23 lung = test system: NCI-H23 lung
ACHN renal = test system: ACHN renal
SF-539 CNS = test system: SF-539 CNS
MALME-3M melanoma = test system: MALME-3M melanoma
NCI/ADR-RES ovarian = test system: NCI/ADR-RES ovarian
OVCAR-4 ovarian = test system: OVCAR-4 ovarian
COLO 205 colon = test system: COLO 205 colon
LOX IMVI melanoma = test system: LOX IMVI melanoma
RXF 393 renal = test system: RXF 393 renal
A549 NSCLC = test system: A549 NSCLC
SK-OV-3 ovarian = test system: SK-OV-3 ovarian
MOLT-4 leukemia = test system: MOLT-4 leukemia
HCT-116 colon = test system: HCT-116 colon
UO-31 renal = test system: UO-31 renal
SNB-19 CNS = test system: SNB-19 CNS
HT29 colon = test system: HT29 colon
IGROV1 ovarian = test system: IGROV1 ovarian
OVCAR-3 ovarian = test system: OVCAR-3 ovarian
K-562 leukemia = test system: K-562 leukemia
U251 CNS = test system: U251 CNS
EKVX NSCLC = test system: EKVX NSCLC
PC-3 prostate = test system: PC-3 prostate
SR leukemia = test system: SR leukemia
KM12 colon = test system: KM12 colon
RPMI-8226 leukemia = test system: RPMI-8226 leukemia
SF-295 CNS = test system: SF-295 CNS
CCRF-CEM leukemia = test system: CCRF-CEM leukemia
SN12C renal = test system: SN12C renal
T-47D breast = test system: T-47D breast
CAKI-1 renal = test system: CAKI-1 renal
TK-10 renal = test system: TK-10 renal
HL-60(TB) leukemia = test system: HL-60(TB) leukemia
NCI-H460 lung = test system: NCI-H460 lung
HCT-15 colon = test system: HCT-15 colon
786-0 renal = test system: 786-0 renal
SK-MEL-28 melanoma = test system: SK-MEL-28 melanoma
A498 renal = test system: A498 renal
SF-268 CNS = test system: SF-268 CNS
HS 578T breast = test system: HS 578T breast
SNB-75 CNS = test system: SNB-75 CNS
DU-145 prostate = test system: DU-145 prostate
NCI-H522 lung = test system: NCI-H522 lung
BT-549 breast = test system: BT-549 breast
UACC-62 melanoma = test system: UACC-62 melanoma

Cc1ccc(C(=O)NCCCNc2nc(Nc3ccc(N4CCN(C)CC4)cc3)nc3ccsc23)cc1
GI50 (M14 melanoma): 2.14 µM | TGI (M14 melanoma): 4.77 µM | GI50 (MDA-MB-435): 4.31 µM | TGI (MDA-MB-435): 15.5 µM | GI50 (MCF7 breast): 3.22 µM | TGI (MCF7 breast): 11.4 µM | GI50 (HOP-62 NSCLC): 10.3 µM | TGI (HOP-62 NSCLC): 23.4 µM | GI50 (OVCAR-8 ovarian): 3 µM | TGI (OVCAR-8 ovarian): 11.7 µM | GI50 (HCC-2998 colon): 3.44 µM | TGI (HCC-2998 colon): 9.5 µM | GI50 (UACC-257 melanoma): 2.2 µM | TGI (UACC-257 melanoma): 6.2 µM | GI50 (SK-MEL-5 melanoma): 1.84 µM | TGI (SK-MEL-5 melanoma): 4.08 µM | GI50 (SK-MEL-2 melanoma): 4.33 µM | TGI (SK-MEL-2 melanoma): 16.5 µM | GI50 (NCI-H226 lung): 4.79 µM | TGI (NCI-H226 lung): 19.4 µM | GI50 (MDA-MB-231 breast): 3.17 µM | TGI (MDA-MB-231 breast): 10.7 µM | GI50 (SW-620 colon): 2.63 µM | TGI (SW-620 colon): 8 µM | GI50 (HOP-92 NSCLC): 2.23 µM | TGI (HOP-92 NSCLC): 10.4 µM | GI50 (MDA-MB-468 breast): 1.3 µM | TGI (MDA-MB-468 breast): 4.45 µM | GI50 (OVCAR-5 ovarian): 11 µM | TGI (OVCAR-5 ovarian): 25.5 µM | GI50 (NCI-H23 lung): 5.59 µM | TGI (NCI-H23 lung): 20.5 µM | GI50 (ACHN renal): 3.99 µM | TGI (ACHN renal): 15 µM | GI50 (SF-539 CNS): 1.73 µM | TGI (SF-539 CNS): 3.42 µM | GI50 (MALME-3M melanoma): 1.79 µM | TGI (MALME-3M melanoma): 3.27 µM | GI50 (NCI/ADR-RES ovarian): 3.11 µM | TGI (NCI/ADR-RES ovarian): 11.4 µM | GI50 (OVCAR-4 ovarian): 3.45 µM | TGI (OVCAR-4 ovarian): 15 µM | GI50 (COLO 205 colon): 2.35 µM | TGI (COLO 205 colon): 5.43 µM | GI50 (LOX IMVI melanoma): 1.71 µM | TGI (LOX IMVI melanoma): 3.86 µM | GI50 (RXF 393 renal): 1.47 µM | TGI (RXF 393 renal): 3.71 µM | GI50 (A549 NSCLC): 3.99 µM | TGI (A549 NSCLC): 16.3 µM | GI50 (SK-OV-3 ovarian): 10.8 µM | TGI (SK-OV-3 ovarian): 24 µM | GI50 (MOLT-4 leukemia): 1.8 µM | TGI (MOLT-4 leukemia): 4.89 µM | GI50 (HCT-116 colon): 2.62 µM | TGI (HCT-116 colon): 10.2 µM | GI50 (UO-31 renal): 3.57 µM | TGI (UO-31 renal): 15.3 µM | GI50 (SNB-19 CNS): 10.2 µM | TGI (SNB-19 CNS): 22.2 µM | GI50 (HT29 colon): 2.06 µM | TGI (HT29 colon): 5.96 µM | GI50 (IGROV1 ovarian): 4.4 µM | TGI (IGROV1 ovarian): 17 µM | GI50 (OVCAR-3 ovarian): 3.08 µM | TGI (OVCAR-3 ovarian): 10.9 µM | GI50 (K-562 leukemia): 1.74 µM | TGI (K-562 leukemia): 18.4 µM | GI50 (U251 CNS): 2.78 µM | TGI (U251 CNS): 11.1 µM | GI50 (EKVX NSCLC): 10.2 µM | TGI (EKVX NSCLC): 22.3 µM | GI50 (PC-3 prostate): 3.33 µM | TGI (PC-3 prostate): 14.8 µM | GI50 (SR leukemia): 1.69 µM | TGI (SR leukemia): 4.71 µM | GI50 (KM12 colon): 4.02 µM | TGI (KM12 colon): 15.8 µM | GI50 (RPMI-8226 leukemia): 2.02 µM | TGI (RPMI-8226 leukemia): 6.4 µM | GI50 (SF-295 CNS): 2.68 µM | TGI (SF-295 CNS): 7.7 µM | GI50 (CCRF-CEM leukemia): 1.87 µM | TGI (CCRF-CEM leukemia): > 100 µM | GI50 (SN12C renal): 7.19 µM | TGI (SN12C renal): 20.7 µM | GI50 (T-47D breast): 2.25 µM | TGI (T-47D breast): 7.62 µM | GI50 (CAKI-1 renal): 3.3 µM | TGI (CAKI-1 renal): 14.1 µM | GI50 (TK-10 renal): 3.14 µM | TGI (TK-10 renal): 9.36 µM | GI50 (HL-60(TB) leukemia): 1.99 µM | TGI (HL-60(TB) leukemia): 4.52 µM | GI50 (NCI-H460 lung): 3.75 µM | TGI (NCI-H460 lung): 14 µM | GI50 (HCT-15 colon): 2.54 µM | TGI (HCT-15 colon): 11.2 µM | GI50 (786-0 renal): 2.02 µM | TGI (786-0 renal): 6.3 µM | GI50 (SK-MEL-28 melanoma): 2.18 µM | TGI (SK-MEL-28 melanoma): 4.64 µM | GI50 (A498 renal): 12.3 µM | TGI (A498 renal): 24.9 µM | GI50 (SF-268 CNS): 2.46 µM | TGI (SF-268 CNS): 17.9 µM | GI50 (HS 578T breast): 2.55 µM | TGI (HS 578T breast): 18.3 µM | GI50 (SNB-75 CNS): 1.91 µM | TGI (SNB-75 CNS): 12.1 µM | GI50 (DU-145 prostate): 5.89 µM | TGI (DU-145 prostate): 19.2 µM | GI50 (NCI-H522 lung): 2.21 µM | TGI (NCI-H522 lung): 5.86 µM | GI50 (BT-549 breast): 2.46 µM | TGI (BT-549 breast): 7.15 µM | GI50 (UACC-62 melanoma): 1.98 µM | TGI (UACC-62 melanoma): 4.21 µM

Reference: PubChem BioAssay (NCI)
